The values below come from patent publication US7098208B2, “Inhibitors of Akt activity” (Merck & Co., Inc., priority 2001, dated 2006).

A value given as a limit tells only on which side of the number the result lay.

Usually IC50 stands for the concentration that gives 50% inhibition.

The test relates to PKC (mix of isoforms). Kind of test: PKC Assay (counter screen). In kind it is biochemical. To be noted: myelin basic protein substrate; read-out: Counter screens IC50 (μM) PKC. The protocol:
Each PKC assay consists of the following components:
Final assay concentrations were as follows: 0.25 mM EGTA, 0.4 mM CaCl, 20 mM Tris pH 7.5, 10 mM MgCl, 1 mM 2-mercaptoethanol, 0.32 mg/ml phosphatidylserine, 0.032 mg/ml diacylglycerol, 10 μM ^33P-ATP, 70 μg/ml MBP, 10 ng/ml PKC, 0.1 mg/ml BSA.
Assays are performed using 96 deep well assay plates. In each assay well 10 μl of solvent control or appropriate inhibitor dilution with 5 μl ^33P-ATP (components #5 and #3) were premixed. In a separate tube, a mixture containing equal volumes of components #1, #2, #4, and #6 was prepared. The assay reaction was initiated by adding 35 μL of the components #1, #2, #4, and #6 mixture to wells containing ^33P-ATP and inhibitor. The liquid in the assay wells was thoroughly mixed and the assay reactions incubated for 20 minutes at room temperature. The reactions were stopped by adding 100 mM EDTA (50 μl) and 100 mM sodium pyrophosphate (50 μl) and mixing. Phosphorylated MBP was collected on PVDF membranes in 96 well filter plates and quantitated by scintillation counting.
(In general: Counterscreens check selectivity or assay interference.)
As for `CN(C)CC(C)(C)CNc1nn2c(-c3cccc(F)c3)nnc2cc1C1CCC1` [Compound 5, N′-(7-Cyclobutyl-3-(3-fluoro-phenyl)-[1,2,4]triazolo[4,3-b]pyridazin-6-yl)-2,2,N,N-tetramethyl-propane-1,3-diamine], the IC50 is greater than 40 µM.
Turning to `CN(C)CC(C)(C)CNc1nn2c(-c3ccc(F)c(F)c3)nnc2cc1C1CCC1` [Compound 3, N′-(7-Cyclobutyl-3-(3,4-difluoro-phenyl)-[1,2,4]triazolo[4,3-b]pyridazin-6-yl)-2,2,N,N-tetramethyl-propane-1,3-diamine], the IC50 was greater than 40 µM.
With `CN(C)CC(C)(C)CNc1nn2c(-c3ccccc3)nnc2cc1C1CCC1` [Compound 1, N′-(7-Cyclobutyl-3-phenyl-[1,2,4]triazolo[4,3-b]pyridazin-6-yl)-2,2,N,N-tetramethyl-propane-1,3-diamine], the IC50 is greater than 40 µM.
Turning to `CN(C)CC(C)(C)CNc1nn2c(-c3cc(F)cc(F)c3)nnc2cc1C1CCC1` [Compound 2, N′-(7-Cyclobutyl-3-(3,5-difluoro-phenyl)-[1,2,4]triazolo[4,3-b]pyridazin-6-yl)-2,2,N,N-tetramethyl-propane-1,3-diamine], the IC50 is greater than 40 µM.
Consider `CN(C)CC(C)(C)CNc1nn2c(-c3ccc(F)cc3)nnc2cc1C1CCC1` [Compound 4, N′-(7-Cyclobutyl-3-(4-fluoro-phenyl)-[1,2,4]triazolo[4,3-b]pyridazin-6-yl)-2,2,N,N-tetramethyl-propane-1,3-diamine], for which the IC50 was greater than 40 µM.
